Test system: MDA-231 GFP tumors
Assay: Human breast carcinoma MDA-MB-231 GFP xenograft in nude mice (tumor volume)
Format: in vivo, BALB/c (nu/nu) mice
Conditions: week 14
Source text: FIG. 5. Preliminary dose defining study. Effect of anti-human uPAR IgG (Mab 3936), doxorubicin, Mab 3936-Doxorubicin conjugate on xenograft human breast cancer tumor model in nude mice (MDA-231 GFP tumors). Tumor volume (mm^3) from week 8 to week 11 post tumor cell inoculation were compared. Bar graph from left to right: animals received control serum, doxorubicin via intravenous (DOX I.V.), doxorubicin via […] (DOX I.P.), Mab 3936 (3936) or Mab 3936-doxorubicin conjugate (3936+DOX) (2 mg/animal).
FIG. 6. Effect of anti-human uPAR IgG (Mab 3936), doxorubicin, Mab 3936-doxorubicin conjugate on xenograft human breast cancer tumor model in nude mice (MDA-231 GFP tumors). Tumor volume (mm^3) from week 5 to week 15 post tumor cell inoculation were compared. Bar graph from left to right: animals received control serum, doxorubicin via intravenous, Mab 3936, doxorubicin via […], and Mab 3936-doxorubicin conjugate.
FIG. 7. […]
For xenograft studies, 4 to 6 weeks old BALB/c (nu/nu) female mice were obtained from Charles River Inc. The mice weighed an average of 20 grams. […] The tumor mass was measured in two dimensions with calipers, twice a week.
Throughout the course of these studies, all control and experimental mice were monitored for any noticeable side effects. […]

With `COc1cccc2c1C(=O)c1c(O)c3c(c(O)c1C2=O)C[C@@](O)(C(=O)CO)C[C@@H]3O[C@H]1C[C@H](N)[C@H](O)[C@H](C)O1` [doxorubicin] as the compound, how does the tumor volume read?
The tumor volume was 330 mm^3.

From US20070190068A1, “uPAR-binding molecule-drug conjugates and uses thereof” (priority 2005, published 2007)
